Values after ≈ are worked out from the molar mass of the structure shown. Read-outs that look alike come from different tables or passages of the source.
Key:
[1] = in vitro; conditions: human, e6 sm cells, Minimum cytotoxic concentration
[2] = test system: herpes simplex virus 2 (HSV-2) (G); assay: microbe, parasite or virus in culture; format: cell-based; conditions: Human alphaherpesvirus 2, E6SM
[3] = test system: herpes simplex virus type 1 (HSV-1) (KOS); assay: microbe, parasite or virus in culture; format: cell-based; conditions: Human alphaherpesvirus 1, E6SM
[4] = test system: Vesicular stomatitis virus; assay: microbe, parasite or virus in culture; format: cell-based; conditions: E6SM, read-out: Minimum inhibitory concentration Vesicular stomatitis virus
[5] = test system: vaccinia virus (VV); assay: microbe, parasite or virus in culture; format: cell-based; conditions: Orthopoxvirus vaccinia, E6SM
[6] = test system: herpes viruses; conditions: in words; literature; cited from earlier work
[7] = test system: herpes simplex (1 and 2); assay: Anti-herpes simplex (1 and 2) activity, statement in words; format: cell-based, herpes simplex virus
[8] = Table III, required to cause a microscopically detectable alteration of normal cell morphology
[9] = Table I, E6 SM cells, required to reduce virus-induced cytopathogenesis by 50%, read-out: Minimum inhibiting concentration ED50 HSV-2 (G)
[10] = read-out: Minimum inhibitory concentration Herpes simplex virus-2 (G)
[11] = Table I, E6 SM cells, required to reduce virus-induced cytopathogenesis by 50%, read-out: Minimum inhibiting concentration ED50 HSV-1 (KOS)
[12] = read-out: Minimum inhibitory concentration Herpes simplex virus-1 (KOS)
[13] = read-out: Minimum inhibiting concentration ED50 VV
[14] = read-out: Minimum inhibitory concentration Vaccinia virus

SMILES | MCC [1] | MCC [1, 8] | EC50 [2, 9] | EC50 [2, 10] | EC50 [3, 11] | EC50 [3, 12] | EC50 [4] | EC50 [5, 13] | EC50 [5, 14] | anti-viral activity against herpes viruses [6] | anti-herpes simplex (1 and 2) activity [7]
Nc1nccc2c1ncn2[C@@H]1C[C@H](CO)[C@@H](O)[C@H]1O (relative stereo) [C-c^3 Ado, carbocyl 3-deaza adenosine] | > 400 µg/mL | ≥ 200 µg/mL | 40 µg/mL (≈ 151 µM) | > 200 µg/mL | > 400 µg/mL | > 200 µg/mL | 0.2 µg/mL (≈ 0.757 µM) | 0.7 µg/mL (≈ 2.65 µM) | 0.2 µg/mL (≈ 0.757 µM) |  | 
Nc1ncnc2c1ncn2C[C@H](O)CO [(S)-DHPA, (S)-9-(2,3-dihydroxypropyl)-adenine] | > 400 µg/mL | ≥ 200 µg/mL | 300 µg/mL (≈ 1430 µM) | > 200 µg/mL | 70 µg/mL (≈ 335 µM) | > 200 µg/mL | 20 µg/mL (≈ 95.6 µM) |  | 20 µg/mL (≈ 95.6 µM) |  | 
O=c1[nH]c(=O)n([C@H]2C[C@H](O)[C@@H](CO)O2)cc1/C=C/Br [BVDU, E-5-(2-bromovinyl)-2'-deoxyuridine] | > 400 µg/mL | ≥ 200 µg/mL | 10 µg/mL (≈ 30 µM) | > 200 µg/mL |  | 0.004 µg/mL (≈ 0.012 µM) | > 200 µg/mL | 0.2 µg/mL (≈ 0.6 µM) | 0.7 µg/mL (≈ 2.1 µM) | dependent on a virus-specific thymidine kinase | 
Nc1ncnc2c1ncn2[C@@H]1CO[C@H](CO)[C@@H](O)C1 [Compound 10, 1,5-Anhydro-2-(adenin-9-yl) 2,3-dideoxy-D-arabinohexitol] | > 400 µg/mL |  | 7 µg/mL (≈ 26.4 µM) |  | 7 µg/mL (≈ 26.4 µM) |  |  | 20 µg/mL (≈ 75.4 µM) |  |  | 
Nc1nc(O)c2ncn([C@@H]3CO[C@H](CO)[C@@H](O)C3)c2n1 [Compound 13, 1,5-Anhydro-2-(guanin-9-yl)-2,3-dideoxy-D-arabinohexitol] | > 400 µg/mL |  | 0.1 µg/mL (≈ 0.356 µM) |  | 0.2 µg/mL (≈ 0.711 µM) |  |  | 2 µg/mL (≈ 7.11 µM) |  |  | 
Cc1cn([C@@H]2CO[C@H](CO)[C@@H](O)C2)c(=O)[nH]c1=O [Compound 17, 1,5-Anhydro-2,3-dideoxy2-(thymin-1-yl)-D-arabinohexitol] | > 400 µg/mL |  | 150 µg/mL (≈ 585 µM) |  | 40 µg/mL (≈ 156 µM) |  |  | > 200 µg/mL |  |  | 
O=c1[nH]c(=O)n([C@@H]2CO[C@H](CO)[C@@H](O)C2)cc1I [Compound 18, 1,5-Anhydro-2,3-dideoxy-2-(5-iodouracil-1-yl)-D-arabino-hexitol] | > 400 µg/mL |  | 0.07 µg/mL (≈ 0.19 µM) |  | 0.07 µg/mL (≈ 0.19 µM) |  |  | 150 µg/mL (≈ 407 µM) |  |  | especially advantageous anti-herpes simplex (1 and 2) activity
Nc1ccn([C@@H]2CO[C@H](CO)[C@@H](O)C2)c(=O)n1 [Compound 20, 1,5-Anhydro-2-(cytosin-1-yl)-2,3-dideoxy-D-arabinohexitol] | > 400 µg/mL |  | 0.04 µg/mL (≈ 0.166 µM) |  | 0.7 µg/mL (≈ 2.9 µM) |  |  | 0.7 µg/mL (≈ 2.9 µM) |  |  | 
CCc1cn([C@@H]2CO[C@H](CO)[C@@H](O)C2)c(=O)[nH]c1=O [Compound 23, 1,5-Anhydro-2,3-dideoxy-2-(5-ethyluracil-1-yl)-D-arabinohexitol] |  | > 200 µg/mL |  | 0.2 µg/mL (≈ 0.74 µM) |  | < 0.04 µg/mL | > 200 µg/mL |  | > 200 µg/mL |  | especially advantageous anti-herpes simplex (1 and 2) activity
O=c1[nH]c(=O)n([C@H]2C[C@H](O)[C@@H](CO)O2)cc1I [IDU, 5-iodo-2'-deoxyuridine] | > 400 µg/mL |  | 0.2 µg/mL (≈ 0.565 µM) |  | 0.2 µg/mL (≈ 0.565 µM) |  |  | 0.2 µg/mL (≈ 0.565 µM) |  | dependent on a virus-specific thymidine kinase | 
NC(=O)c1ncn(C2O[C@H](CO)[C@@H](O)[C@H]2O)n1 (stereo partly drawn) [Ribavirin, 1-ribofuranosyl-3-carbamoyl-1,2,4-triazol] | > 400 µg/mL | > 400 µg/mL | 70 µg/mL (≈ 287 µM) | > 400 µg/mL | 70 µg/mL (≈ 287 µM) | 200 µg/mL (≈ 819 µM) | 20 µg/mL (≈ 81.9 µM) |  | 70 µg/mL (≈ 287 µM) |  | 
